Experimental data from ChEMBL document CHEMBL1201862, “PubChem BioAssay data set” (2004).
The source made the active and inactive calls.

What was measured:
Phospholipase A2 = Phospholipase A2 (Homo sapiens, UniProt P04054); assay type: functional;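 also: confirmatory dose-response counterscreen on phospholipase A2, testing hits that came from an ultra-high-throughput screen for ATG4B inhibitors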
Cysteine protease ATG4B = Cysteine protease ATG4B (Homo sapiens, UniProt Q9Y4P1); assay type: functional;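 also: Fluorescence-based dose-response confirmation assay measuring inhibition of ATG4B activity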
[1] = target: Delta-type opioid receptor (Homo sapiens, UniProt P41143); assay: Counterscreen for agonists of heterodimerization of the mu 1 (OPRM1) and delta 1 (OPRD1) opioid receptors: Luminescence-based cell-based high throughput dose response assay to identify agonists of OPRD1 homodimerization. [Related pubchem assays (depositor defined):AID504326, AID504355, AID504692, AID504904, AID504905]; assay type: functional
[2] = target: 5-hydroxytryptamine receptor 5A (Homo sapiens, UniProt P47898); assay: Counterscreen for agonists of OPRM1-OPRD1 heterodimerization: luminescence-based cell-based high throughput dose response assay to identify agonists of 5-hydroxytryptamine (serotonin) 5A receptor (HTR5A). [Related pubchem assays (depositor defined):AID504326, AID504355, AID504692, AID504904, AID504905]; assay type: functional
Mu-type opioid receptor = Mu-type opioid receptor (Homo sapiens, UniProt P35372); assay: Counterscreen for agonists of heterodimerization of the mu 1 (OPRM1) and delta 1 (OPRD1) opioid receptors: Luminescence-based cell-based high throughput dose response assay to identify agonists of OPRM1 homodimerization.; assay type: functional;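 also: U2OS cells expressing OPRM1 and beta-arrestin as split beta-galactosidase partners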
[3] = target: Opioid receptors; mu & delta (Homo sapiens, UniProt P41143+P35372); assay: agonists of MOR-DOR heterodimerization, dose response, cell-based, luminescence (AID 588407); assay type: functional
Escherichia coli [4] = assay: microbe, parasite or virus in culture
Escherichia coli [5] = assay: microbe, parasite or virus in culture; remark: listed apart in the source
[6] = target: T1, Histone-lysine N-methyltransferase NSD2 (Homo sapiens, UniProt O96028); assay type: biochemical
T1 sequence (O96028 whole entry): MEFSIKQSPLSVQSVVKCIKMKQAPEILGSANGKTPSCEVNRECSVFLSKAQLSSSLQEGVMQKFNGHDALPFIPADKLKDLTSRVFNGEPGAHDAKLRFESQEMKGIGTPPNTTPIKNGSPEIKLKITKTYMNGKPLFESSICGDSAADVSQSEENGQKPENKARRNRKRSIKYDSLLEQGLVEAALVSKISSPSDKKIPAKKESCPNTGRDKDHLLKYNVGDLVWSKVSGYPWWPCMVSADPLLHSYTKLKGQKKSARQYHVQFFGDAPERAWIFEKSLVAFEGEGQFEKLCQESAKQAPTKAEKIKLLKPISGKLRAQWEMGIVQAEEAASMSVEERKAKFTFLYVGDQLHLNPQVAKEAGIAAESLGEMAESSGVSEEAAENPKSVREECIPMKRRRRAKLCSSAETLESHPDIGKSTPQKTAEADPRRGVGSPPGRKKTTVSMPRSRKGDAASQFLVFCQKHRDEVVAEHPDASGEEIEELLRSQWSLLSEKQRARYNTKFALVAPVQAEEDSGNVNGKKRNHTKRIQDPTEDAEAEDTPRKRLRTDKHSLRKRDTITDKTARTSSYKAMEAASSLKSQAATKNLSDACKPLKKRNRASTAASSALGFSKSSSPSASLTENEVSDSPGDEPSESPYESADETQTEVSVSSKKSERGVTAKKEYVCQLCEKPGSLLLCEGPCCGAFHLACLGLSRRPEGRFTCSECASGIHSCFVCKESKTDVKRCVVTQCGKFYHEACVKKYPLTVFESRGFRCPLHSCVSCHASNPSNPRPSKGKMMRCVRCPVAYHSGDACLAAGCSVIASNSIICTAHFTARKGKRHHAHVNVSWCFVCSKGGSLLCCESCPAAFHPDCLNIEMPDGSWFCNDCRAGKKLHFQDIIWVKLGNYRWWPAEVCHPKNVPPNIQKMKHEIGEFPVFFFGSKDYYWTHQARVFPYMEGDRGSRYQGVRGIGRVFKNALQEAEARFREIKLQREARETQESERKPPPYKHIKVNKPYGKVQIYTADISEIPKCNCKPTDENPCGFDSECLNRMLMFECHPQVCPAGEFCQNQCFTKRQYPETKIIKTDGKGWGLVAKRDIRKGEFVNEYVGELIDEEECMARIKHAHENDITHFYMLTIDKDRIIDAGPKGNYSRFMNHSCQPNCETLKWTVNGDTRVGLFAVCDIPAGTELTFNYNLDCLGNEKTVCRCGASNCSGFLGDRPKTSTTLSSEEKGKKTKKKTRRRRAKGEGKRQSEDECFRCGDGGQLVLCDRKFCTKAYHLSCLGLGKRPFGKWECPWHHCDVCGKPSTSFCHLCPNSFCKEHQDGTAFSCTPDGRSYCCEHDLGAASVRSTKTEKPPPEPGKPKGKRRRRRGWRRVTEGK

Nonstructural protein 1 = Nonstructural protein 1 (Influenza A virus, UniProt Q194T2); assay type: functional, Influenza A virus (A/California/07/2009(H1N1))
[7] = target: Glucose-6-phosphate 1-dehydrogenase (Homo sapiens, UniProt P11413); assay: human G6PD enzyme inhibitors, dose response, selectivity assay for P. falciparum G6PD inhibitor project, biochemical, fluorescence (AID 504792); assay type: functional
Beta-galactosidase = Beta-galactosidase (Escherichia coli, UniProt Q8VNN2); assay: beta-galactosidase enzyme inhibitors and activators, dose response, artefact control for CCR6 antagonist project, biochemical, E. coli enzyme, set 3 (AID 504712); assay type: functional
Vero = Vero cell cytotoxicity, cytotoxicity control for flavivirus capping enzyme inhibitors (AID 588742); assay type: functional; details: Chlorocebus sabaeus
Hexokinase HKDC1 = target: T2, Hexokinase HKDC1 (Homo sapiens, UniProt Q2TB90); assay: HKDC1 hexokinase inhibitors, dose response, biochemical, W721R variant (AID 504729); assay type: functional
T2 sequence (Q2TB90 whole entry): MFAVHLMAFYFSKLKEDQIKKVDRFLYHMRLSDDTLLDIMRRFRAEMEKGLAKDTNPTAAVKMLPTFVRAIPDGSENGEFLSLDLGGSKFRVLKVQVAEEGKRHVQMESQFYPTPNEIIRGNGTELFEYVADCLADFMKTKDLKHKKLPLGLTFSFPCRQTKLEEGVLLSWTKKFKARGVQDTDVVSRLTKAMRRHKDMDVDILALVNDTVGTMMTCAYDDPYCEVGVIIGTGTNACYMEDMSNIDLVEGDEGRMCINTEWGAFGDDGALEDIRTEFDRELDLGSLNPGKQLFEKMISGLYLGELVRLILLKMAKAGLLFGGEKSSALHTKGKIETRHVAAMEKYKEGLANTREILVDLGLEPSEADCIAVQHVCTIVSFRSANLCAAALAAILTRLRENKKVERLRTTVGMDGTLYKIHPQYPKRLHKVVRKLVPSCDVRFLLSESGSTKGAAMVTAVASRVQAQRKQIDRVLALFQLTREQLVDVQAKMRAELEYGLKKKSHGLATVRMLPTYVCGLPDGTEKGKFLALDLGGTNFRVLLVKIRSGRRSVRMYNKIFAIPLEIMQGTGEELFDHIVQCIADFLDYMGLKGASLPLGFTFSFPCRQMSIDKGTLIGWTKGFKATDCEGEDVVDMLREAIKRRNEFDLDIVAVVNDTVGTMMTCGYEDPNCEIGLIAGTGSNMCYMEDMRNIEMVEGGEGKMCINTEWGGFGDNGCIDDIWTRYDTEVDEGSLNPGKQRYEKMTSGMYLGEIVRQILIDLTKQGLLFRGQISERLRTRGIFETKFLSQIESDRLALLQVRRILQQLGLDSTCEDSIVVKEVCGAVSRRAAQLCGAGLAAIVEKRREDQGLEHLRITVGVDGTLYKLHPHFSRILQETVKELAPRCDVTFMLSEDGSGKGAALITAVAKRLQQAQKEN

[8] = THP-1 cell cytotoxicity, dose response, cytotoxicity control for Vif-APOBEC3G degradation inhibitor project, THP-1 cells (AID 1117359); assay type: functional; details: Human immunodeficiency virus 1, THP-1
Genome polyprotein = Genome polyprotein (dengue virus type 2, UniProt P29990); assay: Dengue-2 NS5 methyltransferase inhibitors, primary screen, biochemical, confirmation dose response (AID 588689); assay type: functional
Chain of Genome polyprotein (P29990 2492-3391 limits assumed): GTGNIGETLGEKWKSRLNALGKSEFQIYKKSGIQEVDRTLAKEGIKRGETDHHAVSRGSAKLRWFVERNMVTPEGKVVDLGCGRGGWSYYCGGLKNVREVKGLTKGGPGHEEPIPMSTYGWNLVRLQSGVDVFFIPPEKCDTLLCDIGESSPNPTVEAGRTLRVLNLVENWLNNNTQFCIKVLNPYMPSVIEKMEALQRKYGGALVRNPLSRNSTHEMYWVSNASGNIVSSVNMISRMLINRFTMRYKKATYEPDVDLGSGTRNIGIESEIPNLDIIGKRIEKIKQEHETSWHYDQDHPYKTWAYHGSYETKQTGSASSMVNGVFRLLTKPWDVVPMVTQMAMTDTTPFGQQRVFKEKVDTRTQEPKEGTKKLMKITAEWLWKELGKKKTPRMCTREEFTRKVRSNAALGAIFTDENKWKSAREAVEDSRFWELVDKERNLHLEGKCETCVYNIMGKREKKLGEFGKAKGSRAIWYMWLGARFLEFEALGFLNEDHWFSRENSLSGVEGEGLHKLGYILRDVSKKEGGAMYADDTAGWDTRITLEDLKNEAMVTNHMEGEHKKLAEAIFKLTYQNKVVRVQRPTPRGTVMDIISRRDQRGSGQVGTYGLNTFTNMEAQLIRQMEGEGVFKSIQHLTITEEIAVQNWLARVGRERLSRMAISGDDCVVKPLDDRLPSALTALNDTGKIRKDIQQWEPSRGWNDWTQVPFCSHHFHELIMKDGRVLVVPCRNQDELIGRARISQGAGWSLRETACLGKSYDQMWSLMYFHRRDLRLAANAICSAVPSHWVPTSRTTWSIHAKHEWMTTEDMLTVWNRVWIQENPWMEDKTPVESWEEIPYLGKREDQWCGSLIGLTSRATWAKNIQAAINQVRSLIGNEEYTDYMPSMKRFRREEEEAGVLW

Chain of Cysteine protease ATG4B (Q9Y4P1 whole entry): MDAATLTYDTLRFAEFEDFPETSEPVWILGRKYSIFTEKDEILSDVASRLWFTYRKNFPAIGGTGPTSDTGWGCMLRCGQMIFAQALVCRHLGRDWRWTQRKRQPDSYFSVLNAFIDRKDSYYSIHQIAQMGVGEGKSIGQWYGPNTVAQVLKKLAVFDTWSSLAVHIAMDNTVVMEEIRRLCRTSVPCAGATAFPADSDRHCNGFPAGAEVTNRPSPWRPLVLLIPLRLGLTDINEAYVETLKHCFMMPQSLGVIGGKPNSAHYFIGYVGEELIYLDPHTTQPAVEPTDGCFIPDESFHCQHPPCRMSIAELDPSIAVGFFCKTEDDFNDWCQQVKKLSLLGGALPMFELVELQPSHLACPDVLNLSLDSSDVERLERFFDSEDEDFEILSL
Chain of Nonstructural protein 1 (Q194T2 whole entry): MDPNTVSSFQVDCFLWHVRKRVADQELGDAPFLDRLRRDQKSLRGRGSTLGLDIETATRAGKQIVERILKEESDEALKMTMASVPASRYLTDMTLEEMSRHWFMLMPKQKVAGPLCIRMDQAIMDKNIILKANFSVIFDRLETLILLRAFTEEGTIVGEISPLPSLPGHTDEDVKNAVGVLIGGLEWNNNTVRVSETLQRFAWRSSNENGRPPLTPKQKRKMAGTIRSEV
Chain of Beta-galactosidase (Q8VNN2 whole entry): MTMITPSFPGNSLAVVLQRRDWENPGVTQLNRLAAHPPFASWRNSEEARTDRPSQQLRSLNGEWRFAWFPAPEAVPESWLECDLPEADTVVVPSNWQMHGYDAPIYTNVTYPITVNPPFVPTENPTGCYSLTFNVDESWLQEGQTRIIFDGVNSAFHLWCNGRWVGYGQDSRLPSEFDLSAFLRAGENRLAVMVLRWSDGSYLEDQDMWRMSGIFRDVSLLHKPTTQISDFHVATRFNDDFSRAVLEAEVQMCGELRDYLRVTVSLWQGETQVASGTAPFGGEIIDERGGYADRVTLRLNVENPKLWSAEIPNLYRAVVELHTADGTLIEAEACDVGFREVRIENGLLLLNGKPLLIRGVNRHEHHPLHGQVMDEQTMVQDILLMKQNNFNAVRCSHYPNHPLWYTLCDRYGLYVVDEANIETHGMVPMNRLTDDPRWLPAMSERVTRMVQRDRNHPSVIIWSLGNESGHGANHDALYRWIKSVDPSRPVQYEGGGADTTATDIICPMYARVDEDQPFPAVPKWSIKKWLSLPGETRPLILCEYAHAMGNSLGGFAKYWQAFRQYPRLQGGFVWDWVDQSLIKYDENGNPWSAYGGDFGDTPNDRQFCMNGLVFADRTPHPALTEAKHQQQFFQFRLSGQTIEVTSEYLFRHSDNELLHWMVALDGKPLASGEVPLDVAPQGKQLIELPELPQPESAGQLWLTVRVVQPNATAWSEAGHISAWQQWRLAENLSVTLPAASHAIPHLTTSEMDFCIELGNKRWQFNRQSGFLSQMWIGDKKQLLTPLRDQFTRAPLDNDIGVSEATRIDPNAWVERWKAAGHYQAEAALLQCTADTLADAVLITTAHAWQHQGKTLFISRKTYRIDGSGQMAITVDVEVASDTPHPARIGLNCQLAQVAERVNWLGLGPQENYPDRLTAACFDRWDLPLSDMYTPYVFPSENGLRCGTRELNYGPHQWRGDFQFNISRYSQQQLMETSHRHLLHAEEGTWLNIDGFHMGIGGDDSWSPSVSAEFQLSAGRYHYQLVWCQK
Chain of Delta-type opioid receptor (P41143 whole entry): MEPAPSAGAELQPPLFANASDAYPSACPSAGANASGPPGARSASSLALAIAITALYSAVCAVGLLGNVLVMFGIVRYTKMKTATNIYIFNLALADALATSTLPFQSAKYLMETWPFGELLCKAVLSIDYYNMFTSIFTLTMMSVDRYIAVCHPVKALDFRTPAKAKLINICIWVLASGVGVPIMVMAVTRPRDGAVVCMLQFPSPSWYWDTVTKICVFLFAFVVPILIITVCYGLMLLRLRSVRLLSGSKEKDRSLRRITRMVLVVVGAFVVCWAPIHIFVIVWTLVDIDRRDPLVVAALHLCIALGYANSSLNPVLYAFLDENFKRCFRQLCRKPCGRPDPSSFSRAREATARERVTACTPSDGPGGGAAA
Chain of Glucose-6-phosphate 1-dehydrogenase (P11413 whole entry): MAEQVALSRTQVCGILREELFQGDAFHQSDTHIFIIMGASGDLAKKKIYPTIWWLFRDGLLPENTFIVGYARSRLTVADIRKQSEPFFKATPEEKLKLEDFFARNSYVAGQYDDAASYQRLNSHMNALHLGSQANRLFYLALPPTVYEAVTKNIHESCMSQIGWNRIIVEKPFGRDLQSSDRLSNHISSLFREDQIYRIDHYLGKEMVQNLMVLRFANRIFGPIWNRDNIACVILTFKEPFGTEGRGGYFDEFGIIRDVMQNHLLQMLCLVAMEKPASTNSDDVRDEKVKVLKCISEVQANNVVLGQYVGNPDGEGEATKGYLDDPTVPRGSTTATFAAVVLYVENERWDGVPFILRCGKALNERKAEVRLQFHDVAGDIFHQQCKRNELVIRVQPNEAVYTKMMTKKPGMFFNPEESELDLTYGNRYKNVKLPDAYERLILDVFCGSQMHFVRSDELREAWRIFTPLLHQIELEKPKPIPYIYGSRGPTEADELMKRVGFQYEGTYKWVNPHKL
Chain of 5-hydroxytryptamine receptor 5A (P47898 whole entry): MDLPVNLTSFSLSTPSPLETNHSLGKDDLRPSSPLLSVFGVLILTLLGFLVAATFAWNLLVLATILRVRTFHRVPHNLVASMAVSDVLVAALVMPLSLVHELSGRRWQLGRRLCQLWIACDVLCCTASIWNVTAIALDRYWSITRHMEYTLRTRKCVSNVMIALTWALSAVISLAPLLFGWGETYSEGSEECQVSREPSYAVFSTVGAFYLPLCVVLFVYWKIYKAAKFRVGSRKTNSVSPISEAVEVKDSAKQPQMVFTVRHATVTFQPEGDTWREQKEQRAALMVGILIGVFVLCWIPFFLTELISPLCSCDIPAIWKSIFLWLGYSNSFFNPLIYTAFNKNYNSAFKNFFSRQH
Chain of Mu-type opioid receptor (P35372 whole entry): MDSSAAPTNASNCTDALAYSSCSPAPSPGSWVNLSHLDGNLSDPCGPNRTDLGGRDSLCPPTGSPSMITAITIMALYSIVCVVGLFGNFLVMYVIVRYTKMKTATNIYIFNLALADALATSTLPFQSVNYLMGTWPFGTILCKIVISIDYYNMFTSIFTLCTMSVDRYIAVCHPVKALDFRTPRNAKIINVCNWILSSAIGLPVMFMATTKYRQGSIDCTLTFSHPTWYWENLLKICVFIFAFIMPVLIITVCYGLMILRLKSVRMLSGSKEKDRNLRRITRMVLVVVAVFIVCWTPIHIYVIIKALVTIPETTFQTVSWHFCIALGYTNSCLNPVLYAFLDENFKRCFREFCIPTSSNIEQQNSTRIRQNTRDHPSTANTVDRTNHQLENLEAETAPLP
Chain of Phospholipase A2 (P04054 whole entry): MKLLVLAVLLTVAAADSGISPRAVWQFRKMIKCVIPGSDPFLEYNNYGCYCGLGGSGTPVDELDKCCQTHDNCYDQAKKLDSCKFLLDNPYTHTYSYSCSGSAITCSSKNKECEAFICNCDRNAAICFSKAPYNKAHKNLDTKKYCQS

What does the source list for `O=C(c1ccc(Cl)c(S(=O)(=O)Nc2ccccc2C(=O)N2CCc3ccccc3C2)c1)N1CCc2ccccc2C1`?
IC50 (Phospholipase A2): 10.7 µM (active); IC50 (Cysteine protease ATG4B): 15.6 µM (active)

Which EC50 [1] does the source give for `COc1ccc(NC(=O)COc2ccccc2C(=O)NCC(c2ccccc2)N(C)C)cc1Cl` (stereo unspecified) here?
Its EC50 is 9.79 µM (active).

And the EC50 [2]?
Its EC50 is > 92.5 µM (inactive).

And the EC50 (Mu-type opioid receptor)?
Its EC50 is > 92.5 µM (inactive).

And the EC50 [3]?
The EC50 was > 3.425 µM.

For `Cc1nn(C)cc1S(=O)(=O)Nc1ccccc1Br`, which AC50 (Escherichia coli [4]) is on record?
The AC50 was 66.8 µM (active).

What about the AC50 (Escherichia coli [5]) of the same compound?
The AC50 was 65.8 µM (active).

Which AC50 [6] does the source give for `CC1COCC(C)N1C1=C(Cl)C(=O)c2ccccc2C1=O` (stereo unspecified) here?
The AC50 was 0.873 µM (active).

What about the IC50 (Nonstructural protein 1) of the same compound?
The IC50 was 17.9 µM (active).

What about the IC50 [7] of the same compound?
Its IC50 is 72.9 µM (inactive).

What about the IC50 (Beta-galactosidase) of the same compound?
Its IC50 is > 66.6 µM (inactive).

What about the CC50 (Vero) of the same compound?
The CC50 was 23.4 µM (active).

What about the IC50 (Hexokinase HKDC1) of the same compound?
Its IC50 is > 80 µM (inactive).

And the CC50 [8]?
The CC50 was 16.1 µM (active).

What about the IC50 (Genome polyprotein) of the same compound?
The IC50 was 16.2 µM (active).
